Tested on: Wistar rats
Assay: Tolerability study of calcium zoledronate microparticles in rats after s.c. administration (skin fold thickness)
Format: in vivo, rat
Settings: s.c. injection of suspension, 60 microgram, female Wistar rats
Experimental: The microparticles of Examples 2 and 3 are suspended in a vehicle containing sodium carboxy methylcellulose, D-mannitol, Pluronics F68 and water for injection. 200 microliters of these suspensions were injected subcutaneously to the shaved skin at the left dorsal side of 8 weeks old female virgin Wistar rats (body weight approximately 220 g). In this way 1 mg dose (per animal) of zoledronic acid of the 15% calcium zoledronate microparticles (Example 3) and 2 mg dose (per animal) of zoledronic acid of the 10% calcium zoledronate microparticles (Example 2) were applied to a group of 6 animals per formulation. The thickness of the skin will be measured by a micro-caliper at the side of injection and the contra-lateral non-injected side. As reference a suspension of non-encapsulated drug substance is injected in a dose of 60 microgram. In addition, placebo microparticles made out of PLGA 75:25 (IV 0.68 dL/g) are also injected as control.

O=P([O-])(O)C(O)(Cn1ccnc1)P(=O)([O-])O.[Ca+2] [non-encapsulated drug substance, calcium zoledronate]
swelling of the skin / local skin irritation: strong swelling of the skin

From patent US20100047306A1, “PHARMACEUTICAL COMPOSITIONS COMPRISING BISPHOSPONATES” (NOVARTIS AG, priority 2006, published 2010)
